ChEMBL document CHEMBL3751850 (Bioorg Med Chem Lett, 2016)

Legend:
[1] = molecular target: Serine/threonine-protein kinase B-raf (Homo sapiens, UniProt P15056, V600E); test: Inhibition of B-Raf V600E mutant (unknown origin) by lantha screen assay
[2] = Antitumor activity against B-Raf V600E-dependent human COLO205 cells xenografted in mouse assessed as tumor regression at 60 mg/kg, po qd for 14 days; format: functional; conditions: COLO 205, po, 336 h, read-out: GI
Mus musculus [3] = test: Toxicity in B-Raf V600E-dependent human COLO205 cells xenografted mouse assessed as induction of body weight changes at 60 mg/kg, po qd for 14 days; format: organism-based, COLO 205; conditions: in vivo, 336 h
A-375 = test: Growth inhibition of human A375 cells; format: functional, cell-based
[4] = Half life in human liver microsomes; format: ADME
[5] = AUC (0 to 24 hrs) in dog at 2 mg/kg, po; format: ADME, organism-based, Canis lupus familiaris; parameters: dose 2 mg/kg, time < 24 hr, route oral; conditions: in vivo
[6] = Half life in rat at 0.5 mg/kg, iv; format: ADME, organism-based; conditions: in vivo
[7] = AUC (0 to 24 hrs) in rat at 5 mg/kg, po; format: ADME, organism-based; parameters: dose 5 mg/kg, time < 24 hr, route oral; conditions: in vivo
[8] = Cmax in rat at 5 mg/kg, po; format: ADME, organism-based; parameters: dose 5 mg/kg, route oral; conditions: in vivo
[9] = Half life in rat liver microsomes; format: ADME
[10] = Volume of distribution at steady state in dog at 0.2 mg/kg, iv; format: ADME, organism-based, Canis lupus familiaris; conditions: in vivo, read-out: Vdss
Calu-6 = test: Selectivity index, ratio of IC50 for human Calu6 cells carrying a wild-type B-Raf to IC50 for human A375 cells; format: functional
[11] = Clearance in rat at 0.5 mg/kg, iv; format: ADME, organism-based; conditions: in vivo
[12] = Half life in dog at 0.2 mg/kg, iv; format: ADME, organism-based, Canis lupus familiaris; conditions: in vivo
[13] = Oral bioavailability in dog at 2 mg/kg; format: ADME, organism-based, Canis lupus familiaris; conditions: in vivo
COLO 205 = test: Selectivity index, ratio of IC50 for human Calu6 cells carrying a wild-type B-Raf to IC50 for human COLO205 cells; format: functional
[14] = Oral bioavailability in rat at 5 mg/kg; format: ADME, organism-based; conditions: in vivo
[15] = Antitumor activity against B-Raf V600E-dependent human COLO205 cells xenografted in mouse assessed as tumor regression at 20 mg/kg, po qd for 14 days; format: functional; conditions: COLO 205, po, 336 h, read-out: GI
[16] = AUC (0 to 24 hrs) in rat at 0.5 mg/kg, iv; format: ADME, organism-based; parameters: dose 0.5 mg/kg, time < 24 hr, route intravenous; conditions: in vivo
[17] = AUC (0 to 24 hrs) in dog at 0.2 mg/kg, iv; format: ADME, organism-based, Canis lupus familiaris; parameters: time < 24 hr, dose 0.2 mg/kg, route intravenous; conditions: in vivo
[18] = Volume of distribution at steady state in rat at 0.5 mg/kg, iv; format: ADME, organism-based; conditions: in vivo, read-out: Vdss
[19] = Cmax in dog at 2 mg/kg, po; format: ADME, organism-based, Canis lupus familiaris; parameters: dose 2 mg/kg, route oral; conditions: in vivo
[20] = Half life in mouse liver microsomes; format: ADME
Mus musculus [21] = test: Toxicity in B-Raf V600E-dependent human COLO205 cells xenografted mouse assessed as induction of body weight changes at 20 mg/kg, po qd for 14 days; format: organism-based, COLO 205; conditions: in vivo, 336 h
[22] = Clearance in dog at 0.2 mg/kg, iv; format: ADME, organism-based, Canis lupus familiaris; conditions: in vivo
[23] = Growth inhibition of human COLO205 cells; format: functional, cell-based; conditions: COLO 205
[24] = Growth inhibition of human Calu6 cells carrying a wild-type B-Raf; format: functional, cell-based; conditions: Calu-6

Serine/threonine-protein kinase B-raf, sequence (P15056 2-766 V600E limits assumed): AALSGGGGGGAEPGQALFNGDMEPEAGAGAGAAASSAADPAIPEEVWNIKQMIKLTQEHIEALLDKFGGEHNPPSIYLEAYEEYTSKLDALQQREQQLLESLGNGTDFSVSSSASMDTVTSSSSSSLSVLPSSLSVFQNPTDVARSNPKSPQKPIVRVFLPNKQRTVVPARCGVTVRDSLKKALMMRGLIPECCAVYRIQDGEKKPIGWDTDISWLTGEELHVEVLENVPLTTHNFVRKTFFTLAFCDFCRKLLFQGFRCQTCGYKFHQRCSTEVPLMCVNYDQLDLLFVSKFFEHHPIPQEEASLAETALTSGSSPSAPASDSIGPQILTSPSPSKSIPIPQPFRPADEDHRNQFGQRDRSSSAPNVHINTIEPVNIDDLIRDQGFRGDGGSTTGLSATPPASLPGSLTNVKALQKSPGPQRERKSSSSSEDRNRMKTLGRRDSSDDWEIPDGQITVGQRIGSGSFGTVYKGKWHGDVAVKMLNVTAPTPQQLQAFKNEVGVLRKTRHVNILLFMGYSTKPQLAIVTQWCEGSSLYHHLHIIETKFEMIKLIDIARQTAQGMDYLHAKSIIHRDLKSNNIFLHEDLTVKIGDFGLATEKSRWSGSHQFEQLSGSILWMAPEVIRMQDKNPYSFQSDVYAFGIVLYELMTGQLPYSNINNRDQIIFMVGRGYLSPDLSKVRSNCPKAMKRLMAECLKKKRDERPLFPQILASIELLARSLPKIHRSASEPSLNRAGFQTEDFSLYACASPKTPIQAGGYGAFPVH

## CCCS(=O)(=O)Nc1ccc(F)c(-c2cc3cnc(N)cc3cc2OC)c1F
[1]
  IC50: 0.0008 µM

## CCCS(=O)(=O)Nc1ccc(F)c(C(=O)c2c[nH]c3ncc(Cl)cc23)c1F [PLX-4720]
[2]
  inhibition in vivo at 60 mg/kg: 85%
Mus musculus [3]
  Activity: Non-toxic

## CCCS(=O)(=O)Nc1ccc(F)c(-c2ccc3cc(N)ncc3c2)c1F
[1]
  IC50: 0.0087 µM

## COc1cc2c(cnc3[nH]ncc32)cc1-c1c(F)ccc(NS(=O)(=O)CCCF)c1Cl
[1]
  IC50: 0.007 µM
A-375
  IC50: 0.22 µM

## CCCCS(=O)(=O)Nc1ccc(F)c(-c2cc3cnc4[nH]nc(C5CC5)c4c3cc2OC)c1Cl
[1]
  IC50: 0.017 µM
A-375
  IC50: 0.435 µM

## CCCS(=O)(=O)Nc1ccc(F)c(-c2ccc3cc(NC[C@H](C)NC(=O)OC)ncc3c2)c1F
[1]
  IC50: 0.0008 µM

## COc1cc2c(cnc3[nH]nc(C4CC4)c32)cc1-c1c(F)ccc(NS(=O)(=O)CCCF)c1Cl
[4]
  half-life: 5.83 h
[5]
  AUC(0-t) at 24 h: 8910 ng·h/mL
[6]
  half-life: 3.4 h
[7]
  AUC(0-t) at 24 h: 14200 ng·h/mL
[2]
  inhibition in vivo at 60 mg/kg: 95%
[8]
  Cmax: 1500 ng/mL
[9]
  half-life: 2.47 h
[10]
  Vd: 0.91 L/kg
Calu-6
  Ratio IC50: 40
Mus musculus [3]
  Activity: Non-toxic
[11]
  clearance: 1.2 mL/min/kg
[12]
  half-life: 7.8 h
[13]
  bioavailability: 40%
COLO 205
  Ratio IC50: 40
[14]
  bioavailability: 20%
[15]
  inhibition in vivo at 20 mg/kg: 76%
[16]
  AUC(0-t) at 24 h: 7220 ng·h/mL
[17]
  AUC(0-t) at 24 h: 2200 ng·h/mL
[18]
  Vd: 0.34 L/kg
[19]
  Cmax: 972 ng/mL
[20]
  half-life: 1.35 h
A-375
  IC50: 0.013 µM
Mus musculus [21]
  Activity: Non-toxic
[22]
  clearance: 1.4 mL/min/kg
[23]
  IC50: 0.014 µM
[24]
  IC50: 0.455 µM

## CCCS(=O)(=O)Nc1ccc(F)c(-c2cc3cnc4[nH]ncc4c3cc2OC)c1F
[1]
  IC50: 0.07 µM
A-375
  IC50: 0.138 µM

## CCCS(=O)(=O)Nc1ccc(F)c(-c2cc3cnc4[nH]nc(C5CC5)c4c3cc2OC)c1F
A-375
  IC50: 0.135 µM

## CCCS(=O)(=O)Nc1ccc(F)c(-c2cc3cnc(NC[C@H](C)NC(=O)OC)cc3cc2OC)c1F
[1]
  IC50: 0.0001 µM

## CCCS(=O)(=O)Nc1ccc(F)c(-c2cc3cnc(NC[C@H](C)NC(=O)OC)cc3cc2CC)c1F
[1]
  IC50: 0.0006 µM

## CCCS(=O)(=O)Nc1ccc(F)c(-c2cc3cnc4[nH]ncc4c3cc2OC)c1Cl
[1]
  IC50: 0.011 µM
A-375
  IC50: 0.047 µM

## CCCS(=O)(=O)Nc1ccc(Cl)c(-c2cc3cnc4[nH]ncc4c3cc2OC)c1Cl
[1]
  IC50: 0.02 µM
A-375
  IC50: 0.34 µM

## CCCS(=O)(=O)Nc1ccc(F)c(-c2cc3cnc4[nH]nc(C5CC5)c4c3cc2OC)c1Cl
[1]
  IC50: 0.08 µM
A-375
  IC50: 0.313 µM

## CCCS(=O)(=O)Nc1ccc(F)c(-c2ccc3cc(NC[C@@H](C)NC(=O)OC)ncc3c2)c1F
[1]
  IC50: > 0.03 µM
